Data as given in ChEMBL document CHEMBL1135871, “Sordarin oxazepine derivatives as potent antifungal agents” (2002).
Values after ≈ are worked out from the molar mass of the structure shown.

Tests used:
Format in all cases: functional
[1] = system: Cryptococcus neoformans; experiment: Minimum inhibitory concentration required to inhibit 90-100% growth of Cryptococcus neoformans
[2] = system: Nakaseomyces glabratus; experiment: Minimum inhibitory concentration required to inhibit 90-100%growth of Candida glabrata
[3] = system: Candida albicans; experiment: Minimum inhibitory concentration required to inhibit 90-100%growth of Candida albicans

SMILES | MIC [1] [mg/L] | MIC [2] [mg/L] | MIC [3] [mg/L]
CC(C)C1=CC2CC3(C=O)[C@@H]4CC[C@@H](C)[C@H]4CC2(CO[C@@H]2O[C@H](C)CN(CCC(F)(F)F)C[C@@H]2O)[C@]13C(=O)O | > 128 | 32 (≈ 57.4 µM) | 1 (≈ 1.79 µM)
COc1ccc(CN2C[C@@H](C)O[C@@H](OCC34C[C@@H]5[C@H](C)CC[C@H]5C5(C=O)CC3C=C(C(C)C)[C@@]45C(=O)O)[C@@H](O)C2)cc1 | > 128 | 1 (≈ 1.72 µM) | < 0.06
CC(C)C1=CC2CC3(C=O)[C@@H]4CC[C@@H](C)[C@H]4CC2(CO[C@@H]2O[C@H](C)[C@@H](O)[C@@H](O)[C@@H]2O)[C@]13C(=O)O | > 128 | > 128 | > 128
CC(C)C1=CC2CC3(C=O)[C@@H]4CC[C@@H](C)[C@H]4CC2(CO[C@@H]2O[C@H](C)CN(CCc4ncc[nH]4)C[C@@H]2O)[C@]13C(=O)O | > 128 | > 128 | > 128
Cc1coc(CN2C[C@@H](C)O[C@@H](OCC34C[C@@H]5[C@H](C)CC[C@H]5C5(C=O)CC3C=C(C(C)C)[C@@]45C(=O)O)[C@@H](O)C2)c1 | 32 (≈ 57.6 µM) | > 128 | 2 (≈ 3.6 µM)
C=C(Cl)CN1C[C@@H](C)O[C@@H](OCC23C[C@@H]4[C@H](C)CC[C@H]4C4(C=O)CC2C=C(C(C)C)[C@@]34C(=O)O)[C@H](F)C1 | 16 (≈ 29.7 µM) | 2 (≈ 3.72 µM) | < 0.06
CC(C)C1=CC2CC3(C=O)[C@@H]4CC[C@@H](C)[C@H]4CC2(CO[C@@H]2O[C@H](C)CN(CC4CC4)C[C@@H]2O)[C@]13C(=O)O | > 128 | > 128 | > 16
COCCN1C[C@@H](C)O[C@@H](OCC23C[C@@H]4[C@H](C)CC[C@H]4C4(C=O)CC2C=C(C(C)C)[C@@]34C(=O)O)[C@@H](O)C1 | > 128 | > 128 | 16 (≈ 30.8 µM)

Other lines, results leading:

MIC [1] [mg/L] | MIC [2] [mg/L] | MIC [3] [mg/L] | SMILES
> 128 | > 128 | 2 (≈ 3.51 µM) | CC(C)C1=CC2CC3(C=O)[C@@H]4CC[C@@H](C)[C@H]4CC2(CO[C@@H]2O[C@H](C)CN(CCC4=CCCCC4)C[C@@H]2O)[C@]13C(=O)O
16 (≈ 31.6 µM) | 0.125 (≈ 0.247 µM) | < 0.06 | C=C(Cl)CN1C[C@H](OCC23C[C@@H]4[C@H](C)CC[C@H]4C4(C=O)CC2C=C(C(C)C)[C@@]34C(=O)O)O[C@H](C)C1
> 128 | 64 (≈ 113 µM) | 2 (≈ 3.52 µM) | COc1ccc(N2C[C@@H](C)O[C@@H](OCC34C[C@@H]5[C@H](C)CC[C@H]5C5(C=O)CC3C=C(C(C)C)[C@@]45C(=O)O)[C@@H](O)C2)cc1
128 (≈ 218 µM) | > 128 | 2 (≈ 3.41 µM) | CC(C)C1=CC2CC3(C=O)[C@@H]4CC[C@@H](C)[C@H]4CC2(CO[C@@H]2O[C@H](C)CN(Cc4ccccc4Cl)C[C@@H]2O)[C@]13C(=O)O
32 (≈ 57.4 µM) | 128 (≈ 229 µM) | 2 (≈ 3.59 µM) | CC(C)C1=CC2CC3(C=O)[C@@H]4CC[C@@H](C)[C@H]4CC2(CO[C@@H]2O[C@H](C)CN(Cc4cccs4)C[C@@H]2O)[C@]13C(=O)O
> 128 | 64 (≈ 116 µM) | 4 (≈ 7.27 µM) | C=C(Cl)CN1C[C@@H](C)O[C@@H](OCC23C[C@@H]4[C@H](C)CC[C@H]4C4(C=O)CC2C=C(C(C)C)[C@@]34C(=O)O)[C@@H](OC)C1
> 128 | 16 (≈ 27.7 µM) | 8 (≈ 13.8 µM) | C=C(Cl)CN1C[C@@H](C)O[C@@H](OCC23C[C@@H]4[C@H](C)CC[C@H]4C4(C=O)CC2C=C(C(C)C)[C@@]34C(=O)O)[C@@H](OC(C)=O)C1
> 128 | 128 (≈ 255 µM) | 8 (≈ 15.9 µM) | C=CCN1C[C@@H](C)O[C@@H](OCC23C[C@@H]4[C@H](C)CC[C@H]4C4(C=O)CC2C=C(C(C)C)[C@@]34C(=O)O)[C@@H](O)C1
4 (≈ 7.46 µM) | 32 (≈ 59.7 µM) | 0.5 (≈ 0.933 µM) | C=C(Cl)CN1C[C@@H](C)O[C@@H](OCC23C[C@@H]4[C@H](C)CC[C@H]4C4(C=O)CC2C=C(C(C)C)[C@@]34C(=O)O)[C@@H](O)C1
1 (≈ 1.92 µM) | 2 (≈ 3.85 µM) | 0.125 (≈ 0.24 µM) | C=C(Cl)CN1CC[C@H](OCC23C[C@@H]4[C@H](C)CC[C@H]4C4(C=O)CC2C=C(C(C)C)[C@@]34C(=O)O)O[C@H](C)C1
> 64 | 64 (≈ 124 µM) | 0.125 (≈ 0.242 µM) | C=C(C)CN1C[C@@H](C)O[C@@H](OCC23C[C@@H]4[C@H](C)CC[C@H]4C4(C=O)CC2C=C(C(C)C)[C@@]34C(=O)O)[C@@H](O)C1
8 (≈ 16.2 µM) | > 128 | 16 (≈ 32.5 µM) | CO[C@H]1[C@@H](O)[C@H](O)[C@H](OC[C@@]23C[C@@H]4[C@H](C)CC[C@H]4[C@@]4(C=O)CC2C=C(C(C)C)[C@@]34C(=O)O)O[C@@H]1C [SORDARIN]
